# Key:
# [1] = target: T1, TTR in whole human plasma (Homo sapiens, UniProt P02766); experiment: Displacement of 125I-T4 from TTR in normal human plasma; assay type: binding; conditions: wild type TTR, 30 min 37° C. with ligand, immunoprecipitation, mean of at least 3 replicates; for IC50: read-out: D50 plasma
# T1 construct: TTR in whole plasma, from individuals homozygous for wild type TTR; from tissue; host or cells: whole human plasma
# Protocol: 3.2 Displacement of ^125-T4 from TTR in Normal Human Plasma.
# The displacement of ^125I-T4 from TTR in whole plasma, from individuals homozygous for wild type TTR, was studied by incubating plasma with each ligand at increasing concentrations for 30 min at 37° C., further incubation with […] followed by measurement of the radioactivity in the immunoprecipitate obtained with anti-TTR antibodies. […] Percentage binding was plotted against the logarithm of the inhibitor concentration, and D50 (concentration of ligand reducing the binding of T4 by TTR by 50%) was determined using a four parameter dose-response curve with GraphPad Prism 5 (Table 1).
# [2] = target: T2, recombinant Val122Ile TTR (Homo sapiens, UniProt P02766, V142I); experiment: Mechano-enzymatic fibrillogenesis, TTR amyloid by ThT emission fluorescence; assay type: biochemical; conditions: equimolar ligand, 96 h pellets, normalized to 100 % without ligand, mean (SD)
# T2 construct: the non-covalently associated protomers, of mass 13,761, each contain 127 residues; His6 (N); TEV cleavage site (N); made in house; host or cells: E. coli BL21 (DE3)
# Protocol: (§1) Briefly, fibrillogenesis of recombinant Val122Ile TTR at 0.5 mg/ml (9 μM) in PBS, pH 7.4 was carried out in glass vials stirred at 1,400 rpm (IKA magnetic stirrer) and 37° C. in the presence and in the absence of trypsin (5 ng/μl). […] Each ligand was tested at 4 different concentrations (4.5, 9, 18, 36 μM respectively) corresponding to the following drug/TTR molar ratios of 0.5:1, 1:1, 2:1 and 4:1. Several dilutions of the drug stock solutions were made in order to add the same volume of DMSO to each sample. Control samples without drug were added with the same volume of DMSO only. To allow complete binding of ligand by TTR each sample was incubated for 30 min at 37° C. before addition of trypsin. Spectrophotometric turbidity at 400 nm was used to monitor fibril formation over time until it reached a plateau at 96 h. Aggregation of TTR in the presence of equimolar ligand concentrations was quantified as spectrophotometric turbidity at 400 nm as a proportion of 100% for aggregation of the protein in the absence of ligands (Table 2).
# At the end of the 96 h aggregation, pellets were harvested from each protein sample by 20 min centrifugation at 11,600 g, thoroughly rinsed with PBS to remove non-bound ligand, resuspended with 100 μl PBS, pH 7.4 containing 10 μM ThT in Costar 96-well black-wall plates. Bottom fluorescence values (excitation 440 nm, emission 480 nm) were recorded using a BMG LABTECH FLUostar Omega plate reader. Each value was normalized to the ThT signal of the TTR sample without ligand (Table 2)
# [3] = target: T3, native recombinant wild type TTR (Homo sapiens, UniProt P02766); experiment: Kinetics of ligand binding by TTR (stopped flow quenching of intrinsic fluorescence); conditions: TTR 1 μM with equimolar ligand, 37° C., PBS pH 7.4; t½ = ln 2/k
# T3 construct: the non-covalently associated protomers, of mass 13,761, each contain 127 residues; His6 (N); TEV cleavage site (N); made in house; host or cells: E. coli BL21 (DE3)
# Protocol: Ligand binding by native TTR quenches the intrinsic fluorescence of the protein. After mixing of ligands with TTR in solution, monitoring emission of the intrinsic fluorescence over time defines the rate at which the ligand is bound by the protein. The fast phase of these binding kinetics was characterized using an SFM 3000 stopped flow device coupled to a MOS500 spectrometer with a fluorescence detection system (Bio Logic, Claix, France) and a cell path length of 1.5 mm. TTR and ligands at 37° C. were mixed at final concentrations of 1 μM each in PBS pH 7.4 containing 0.9% v/v DMSO, and were excited at 280 nm for measurement of total fluorescence emission over 325 nm using a cut off filter. Kinetic data were acquired as the average of at least 3 experimental mixings and fitted to a first order reaction using the general formula y(t)=at +b+C exp (−kt), where y(t) is the observed fluorescence, a (slope) and b (offset) corresponding to the baseline. C and k are, respectively, amplitude and rate constant of the observed fluorescence change. Data were analysed using the Biokine software and values of half-life time (t½) correspond to ln 2/k. (Table 3).
# [4] = target: T2, recombinant Val122Ile TTR; experiment: Mechano-enzymatic fibrillogenesis, TTR aggregation by turbidity at 400 nm; assay type: biochemical; conditions: equimolar ligand, Val122Ile TTR 9 μM, trypsin, 96 h, 100 % = protein without ligand, mean (SD)
# Protocol: as §1
# isolated wild type TTR = target: T4, isolated wild type TTR (Homo sapiens, UniProt P02766); experiment: Displacement of 125I-T4 from isolated wild type TTR in buffer; conditions: concentration of ligand reducing binding of 125I-T4 by TTR by 50%; 125 nM TTR, pH 8.0, overnight 4° C.; mean of at least 3 replicates; read-out: D50 buffer
# T4 construct: the non-covalently associated protomers, of mass 13,761, each contain 127 residues; His6 (N); TEV cleavage site (N); made in house; host or cells: E. coli BL21 (DE3)
# Protocol: 3. Evaluation of Ligand Activity Based on Capacity to Displace ^125I-Thyroxine (T4) from TTR in Buffer/Human Plasma 3.1 Displacement of ^125I-T4 from Isolated Wild Type TR.
# Competition of ligands with T4 for binding by TTR was assayed quantitatively by a previously described procedure (Kolstoe et al., 2010). Briefly, a solution of 125 nM TTR in 0.1 M Tris-HCl, 0.1 M NaCl and 0.001 M EDTA buffer, pH 8.0, was incubated overnight at 4° C. in the presence of 1.07 nM ^125I T4 (1,200 μCi/μg, 200 μCi/ml, Perkin Elmer) and increasing concentrations of inhibitor (0-5 μM) in 40 μl final volume. ^125I T4 bound by TTR was separated from unbound T4 by gel filtration chromatography using Micro Bio Spin 6 columns (Bio-Rad) previously equilibrated with the reaction buffer containing 1% w/v BSA. After counting with a Wizard2 gamma counter (Perkin-Elmer) for 60 s, percentage binding was plotted against the logarithm of the inhibitor concentration, and D50 (concentration of ligand reducing the binding of T4 by TTR by 50%) was determined using a four parameters dose-response curve with GraphPad Prism 5 (Table 1).
# [5] = Rat oral pharmacokinetics; conditions: in vivo, 5 mg/kg, 5 mpk
# Rat IV pharmacokinetics = conditions: in vivo, 1 mg/kg, 1 mpk, read-out: Rat IV PK t½ (converted)
IC50 [1] [µM],% Aggregation (Fluorescence method) [2],T 1/2 [3] [s],% Aggregation (Turbidity method) [4],IC50 (isolated wild type TTR) [µM],Cmax [5] [ng/mL],half-life (Rat IV pharmacokinetics) [h],D50 plasma [1],% Aggregation (Fluorescence method) ([2]; listed as T-663 (B3)),% Aggregation (Turbidity method) ([4]; listed as T-663 (B3)),SMILES
14.1,4.76 (3.13) %,1.415,4.42 (1.45) %,0.09,–,–,–,–,–,"O=C(O)CCc1cc(Cl)c(OCC[C@@H](O)[C@H](O)CCOc2c(Cl)cc(-c3nc4ccc(C(=O)O)cc4o3)cc2Cl)c(Cl)c1 [Compound B16, 2-[4-[(3R,4R)-6-[4-(2-carboxyethyl)-2,6-dichloro-phenoxy]-3,4-dihydroxy-hexoxy]-3,5-dichloro-phenyl]-1,3-benzoxazole-6-carboxylic acid]"
3.2,8.96 (7.24) %,–,3.96 (1.04) %,0.07,217,6.97,–,–,–,"O=C(O)CCc1cc(Cl)c(OCCCOCCOc2c(Cl)cc(Nc3ccnnc3C(=O)O)cc2Cl)c(Cl)c1 [Compound B25, 4-[4-[2-[3-[4-(2-carboxyethyl)-2,6-dichloro-phenoxy]propoxy]ethoxy]-3,5-dichloro-anilino]pyridazine-3-carboxylic acid]"
1.4,4.62 (2.37) %,–,3.93 (1.73) %,0.09,1450,5.5,–,–,–,"O=C(O)CCc1cc(Cl)c(OCCCOCCOc2c(Cl)cc(Nc3cnccc3C(=O)O)cc2Cl)c(Cl)c1 [Compound B26, 3-[4-[2-[3-[4-(2-carboxyethyl)-2,6-dichloro-phenoxy]propoxy]ethoxy]-3,5-dichloro-anilino]pyridine-4-carboxylic acid]"
7.6,10.6 (10.5) %,–,6.60 (2.40) %,0.14,–,–,–,–,–,"O=C(O)CCc1cc(Cl)c(OCCCOCCOc2c(Cl)cc(Nc3cnncc3C(=O)O)cc2Cl)c(Cl)c1 [Compound B24, 5-[4-[2-[3-[4-(2-carboxyethyl)-2,6-dichloro-phenoxy]propoxy]ethoxy]-3,5-dichloro-anilino]pyridazine-4-carboxylic acid]"
> 100,2.45 (1.39) %,–,3.31 (0.68) %,0.21,–,–,–,–,–,"O=C(O)CCc1ccc(OCCCOCCCOc2ccc(-c3nc4ccc(C(=O)O)cc4o3)cc2Cl)c(Cl)c1 [Compound B18, 2-[4-[3-[3-[4-(2-carboxyethyl)-2-chloro-phenoxy]propoxy]propoxy]-3-chloro-phenyl]-1,3-benzoxazole-6-carboxylic acid]"
4.4,4.74 (2.93) %,–,3.52 (1.14) %,0.07,–,–,–,–,–,"O=C(O)CCc1cc(Cl)c(OCC[C@H](O)[C@@H](O)CCOc2c(Cl)cc(Nc3ccccc3C(=O)O)cc2Cl)c(Cl)c1 [Compound B4, 2-[4-[(3S,4S)-6-[4-(2-carboxyethyl)-2,6-dichloro-phenoxy]-3,4-dihydroxy-hexoxy]-3,5-dichloro-anilino]benzoic acid]"
61,12.7 (5.73) %,–,5.56 (0.75) %,0.1,–,–,–,–,–,"O=C(O)CCc1cc(Cl)c(OCCCOCCCOc2ccc(-c3nc4ccc(C(=O)O)cc4o3)cc2Cl)c(Cl)c1 [Compound B15, 2-[4-[3-[3-[4-(2-carboxyethyl)-2,6-dichloro-phenoxy]propoxy]propoxy]-3-chlorophenyl]-1,3-benzoxazole-6-carboxylic acid]"
–,11.7 (3.67) %,–,6.35 (2.73) %,2.06,–,–,no binding,–,–,"O=C(O)CCc1cc(Cl)c(OCOCCCOc2c(Cl)cc(Nc3ccccc3C(=O)O)cc2Cl)c(Cl)c1 [Compound B8, 2-[4-[3-[[4-(2-carboxyethyl)-2,6-dichloro-phenoxy]methoxy]propoxy]-3,5-dichloro-anilino]benzoic acid]"
4.1,8.31 (6.09) %,–,6.43 (3.09) %,0.07,–,–,–,–,–,"O=C(O)CCc1ccc(OCC[C@@H](O)[C@H](O)CCOc2c(Cl)cc(Nc3ccccc3C(=O)O)cc2Cl)c(Cl)c1 [Compound B21, 2-[4-[6-[4-(2-carboxyethyl)-2-chloro-phenoxy]-3,4-dihydroxy-hexoxy]-3,5-dichloro-anilino]benzoic acid]"
3.6,19.2 (13.0) %,–,7.62 (3.39) %,0.08,–,–,–,–,–,"O=C(O)CCc1cc(Cl)c(OCCOCCCOc2c(Cl)cc(-c3nc4ccc(C(=O)O)cc4o3)cc2Cl)c(Cl)c1 [Compound B29, 2-[4-[3-[2-[4-(2-carboxyethyl)-2,6-dichloro-phenoxy]ethoxy]propoxy]-3,5-dichloro-phenyl]-1,3-benzoxazole-6-carboxylic acid]"
1.7,–,–,–,0.07,–,–,–,4.49 (2.08) %,5.11 (1.58) %,"O=C(O)CCc1cc(Cl)c(OCC[C@@H](O)[C@H](O)CCOc2c(Cl)cc(Nc3ncccc3C(=O)O)cc2Cl)c(Cl)c1 [Compound B3, 2-[4-[(3R,4R)-6-[4-(2-carboxyethyl)-2,6-dichloro-phenoxy]-3,4-dihydroxy-hexoxy]-3,5-dichloro-anilino]pyridine-3-carboxylic acid]"

SMILES,IC50 [1] [µM],% Aggregation (Fluorescence method) [2],T 1/2 [3] [s],% Aggregation (Turbidity method) [4],IC50 (isolated wild type TTR) [µM],Cmax [5] [ng/mL],half-life (Rat IV pharmacokinetics) [h],D50 plasma [1],% Aggregation (Fluorescence method) ([2]; listed as T-663 (B3)),% Aggregation (Turbidity method) ([4]; listed as T-663 (B3))
"O=C(O)CCc1cc(Cl)c(OCCOCCCCOc2c(Cl)cc(Nc3ccccc3C(=O)O)cc2Cl)c(Cl)c1 [Compound B2, 2-[4-[4-[2-[4-(2-carboxyethyl)-2,6-dichloro-phenoxy]ethoxy]butoxy]-3,5-dichloro-anilino]benzoic acid]",2.59,4.36 (1.51) %,–,5.25 (1.68) %,0.1,–,–,–,–,–

# Source: US20230357134A1, “AGENTS FOR USE IN THE TREATMENT OF AMYLOIDOSIS” (UCL BUSINESS LTD, priority 2020, published 2023)
